Laboratory results as given in US12227495B2, “Herbicidal compounds” (SYNGENTA CROP PROTECTION AG, priority 2018, dated 2025).

Tests used:
Format in all cases: in vivo
Settings in all cases: evaluated after 13 days
Lolium perenne (LOLPE) [1] = assay: Pre-emergence herbicide test, glasshouse, percentage damage
Protocol: (§1) Seeds of a variety of test species are sown in standard soil in pots (Lolium perenne (LOLPE), Solanum nigrum (SOLNI), Amaranthus retoflexus (AMARE), Setaria faberi (SETFA), Echinochloa crus-galli (ECHCG), Ipomoea hederacea (IPOHE)). After cultivation for one day (pre-emergence) or after 8 days cultivation (post-emergence) under controlled conditions in a glasshouse (at 24/16° C., day/night; 14 hours light; 65% humidity), the plants are sprayed with an aqueous spray solution derived from the formulation of the technical active ingredient in acetone/water (50:50) solution containing 0.5% Tween 20 (polyoxyethelyene sorbitan monolaurate, CAS RN 9005-64-5). Compounds are applied at 500 g/ha unless otherwise stated. The test plants are then grown in a glasshouse under controlled conditions in a glasshouse (at 24/16° C., day/night; 14 hours light; 65% humidity) and watered twice daily. After 13 days for pre and post-emergence, the test is evaluated for the percentage damage caused to the plant. The biological activities are shown in the following table on a five point scale (5=81-100%; 4=61-80%; 3=41-60%; 2=21-40%; 1=0-20%).

[2] = test system: Echinochloa crus-galli (ECHCG); assay: as above
Protocol: as §1

Solanum nigrum (SOLNI) [3] = assay: as above
Protocol: as §1

[4] = test system: Amaranthus retoflexus (AMARE); assay: as above
Protocol: as §1

[5] = test system: Ipomoea hederacea (IPOHE); assay: as above
Protocol: as §1

Setaria faberi (SETFA) [6] = assay: as above
Protocol: as §1

Lolium perenne (LOLPE) [7] = assay: Post-emergence herbicide test, glasshouse, percentage damage
Protocol: as §1

[8] = test system: Echinochloa crus-galli (ECHCG); assay: as above
Protocol: as §1

Solanum nigrum (SOLNI) [9] = assay: as above
Protocol: as §1

[10] = test system: Amaranthus retoflexus (AMARE); assay: as above
Protocol: as §1

[11] = test system: Ipomoea hederacea (IPOHE); assay: as above
Protocol: as §1

Setaria faberi (SETFA) [12] = assay: as above
Protocol: as §1

Structure (SMILES)	Pre-emergence Test LOLPE percentage damage (five point scale) (Lolium perenne (LOLPE) [1]; rate 1000 g/ha)	Pre-emergence Test ECHCG percentage damage (five point scale) ([2]; rate 1000 g/ha)	Pre-emergence Test SOLNI percentage damage (five point scale) (Solanum nigrum (SOLNI) [3]; rate 1000 g/ha)	Pre-emergence Test AMARE percentage damage (five point scale) ([4]; rate 1000 g/ha)	Pre-emergence Test IPOHE percentage damage (five point scale) ([5]; rate 1000 g/ha)	Pre-emergence Test SETFA percentage damage (five point scale) (Setaria faberi (SETFA) [6]; rate 1000 g/ha)	percentage damage caused to the plant, LOLPE (Lolium perenne (LOLPE) [7]; 1000 g/ha)	percentage damage caused to the plant, ECHCG ([8]; 1000 g/ha)	percentage damage caused to the plant, SOLNI (Solanum nigrum (SOLNI) [9]; 1000 g/ha)	percentage damage caused to the plant, AMARE ([10]; 1000 g/ha)	percentage damage caused to the plant, IPOHE ([11]; 1000 g/ha)	percentage damage caused to the plant, SETFA (Setaria faberi (SETFA) [12]; 1000 g/ha)	also measured
N#Cc1ccc(Oc2ccccc2-n2cc(C(F)(F)F)cn2)nc1 [Compound A19]	5 (5=81-100%)	5 (5=81-100%)	5 (5=81-100%)	5 (5=81-100%)	5 (5=81-100%)	5 (5=81-100%)	5 (5=81-100%)	5 (5=81-100%)	5 (5=81-100%)	5 (5=81-100%)	5 (5=81-100%)	5 (5=81-100%)	
Fc1cc(Br)cnc1Oc1cccc(F)c1-c1cc(C(F)F)no1 [Compound A20]	5 (5=81-100%)	5 (5=81-100%)	3 (3=41-60%)	4 (4=61-80%)	3 (3=41-60%)	5 (5=81-100%)	4 (4=61-80%)	4 (4=61-80%)	5 (5=81-100%)	5 (5=81-100%)	5 (5=81-100%)	4 (4=61-80%)	
Fc1cc(C(F)(F)F)cnc1Oc1cccc(F)c1-c1cc(C(F)F)no1 [Compound A21]	4 (4=61-80%)	5 (5=81-100%)	2 (2=21-40%)	5 (5=81-100%)	2 (2=21-40%)	5 (5=81-100%)	3 (3=41-60%)	4 (4=61-80%)	3 (3=41-60%)	4 (4=61-80%)	3 (3=41-60%)	4 (4=61-80%)	
O=[N+]([O-])c1cnc(Oc2cccc(F)c2-c2cc(C(F)F)no2)c(F)c1 [Compound A22]	1 (1=0-20%)	3 (3=41-60%)	1 (1=0-20%)	5 (5=81-100%)	1 (1=0-20%)	3 (3=41-60%)	2 (2=21-40%)	2 (2=21-40%)	4 (4=61-80%)	4 (4=61-80%)	3 (3=41-60%)	3 (3=41-60%)	
N#Cc1cnc(Oc2cccc(F)c2-c2cc(C(F)F)no2)c(F)c1 [Compound A23]	5 (5=81-100%)	5 (5=81-100%)	4 (4=61-80%)	5 (5=81-100%)	5 (5=81-100%)	5 (5=81-100%)	5 (5=81-100%)	5 (5=81-100%)	5 (5=81-100%)	5 (5=81-100%)	5 (5=81-100%)	5 (5=81-100%)	
Fc1cc(Cl)cnc1Oc1ccccc1-n1cc(Cl)cn1 [Compound A24, 5-chloro-2-[2-(4-chloropyrazol-1-yl)phenoxy]-3-fluoro-pyridine]	4 (4=61-80%)	5 (5=81-100%)	3 (3=41-60%)	5 (5=81-100%)	3 (3=41-60%)	5 (5=81-100%)	3 (3=41-60%)	4 (4=61-80%)	4 (4=61-80%)	4 (4=61-80%)	3 (3=41-60%)	4 (4=61-80%)	
Fc1cc(Cl)cnc1Oc1cccc(F)c1-c1cc(C(F)(F)F)on1 [Compound A25, 3-[2-[(5-chloro-3-fluoro-2-pyridyl)oxy]-6-fluoro-phenyl]-5-(trifluoromethyl)isoxazole]	5 (5=81-100%)	5 (5=81-100%)	5 (5=81-100%)	5 (5=81-100%)	5 (5=81-100%)	5 (5=81-100%)	5 (5=81-100%)	4 (4=61-80%)	5 (5=81-100%)	5 (5=81-100%)	4 (4=61-80%)	5 (5=81-100%)	
N#Cc1cnn(-c2ccccc2Oc2ncc(Cl)cc2F)c1 [Compound A26]	5 (5=81-100%)	5 (5=81-100%)	5 (5=81-100%)	5 (5=81-100%)	4 (4=61-80%)	5 (5=81-100%)	3 (3=41-60%)	5 (5=81-100%)	5 (5=81-100%)	5 (5=81-100%)	3 (3=41-60%)	5 (5=81-100%)	
Fc1cc(Cl)cnc1Oc1ccccc1-n1cc(Br)cn1 [Compound A27]													Pre-emergence Test LOLPE percentage damage (five point scale) (Lolium perenne (LOLPE) [1]; rate 250 g/ha): 3 (3=41-60%); Pre-emergence Test ECHCG percentage damage (five point scale) ([2]; rate 250 g/ha): 5 (5=81-100%); Pre-emergence Test SOLNI percentage damage (five point scale) (Solanum nigrum (SOLNI) [3]; rate 250 g/ha): 5 (5=81-100%); Pre-emergence Test AMARE percentage damage (five point scale) ([4]; rate 250 g/ha): 5 (5=81-100%); Pre-emergence Test IPOHE percentage damage (five point scale) ([5]; rate 250 g/ha): 1 (1=0-20%); Pre-emergence Test SETFA percentage damage (five point scale) (Setaria faberi (SETFA) [6]; rate 250 g/ha): 4 (4=61-80%); percentage damage caused to the plant, LOLPE (Lolium perenne (LOLPE) [7]; 250 g/ha): 2 (2=21-40%); percentage damage caused to the plant, ECHCG ([8]; 250 g/ha): 5 (5=81-100%); percentage damage caused to the plant, SOLNI (Solanum nigrum (SOLNI) [9]; 250 g/ha): 5 (5=81-100%); percentage damage caused to the plant, AMARE ([10]; 250 g/ha): 4 (4=61-80%); percentage damage caused to the plant, IPOHE ([11]; 250 g/ha): 2 (2=21-40%); percentage damage caused to the plant, SETFA (Setaria faberi (SETFA) [12]; 250 g/ha): 5 (5=81-100%)
Fc1cc(Cl)cnc1Oc1ccccc1-n1ccnc1 [Compound A28, 5-chloro-3-fluoro-2-(2-imidazol-1-ylphenoxy)pyridine]	1 (1=0-20%)	1 (1=0-20%)	1 (1=0-20%)	3 (3=41-60%)	1 (1=0-20%)	1 (1=0-20%)	1 (1=0-20%)	1 (1=0-20%)	4 (4=61-80%)	5 (5=81-100%)	1 (1=0-20%)	1 (1=0-20%)	
Fc1cc(Cl)cnc1Oc1ccccc1-n1cncn1 [Compound A29]	1 (1=0-20%)	1 (1=0-20%)	3 (3=41-60%)	5 (5=81-100%)	1 (1=0-20%)	4 (4=61-80%)	1 (1=0-20%)	1 (1=0-20%)	4 (4=61-80%)	4 (4=61-80%)	2 (2=21-40%)	2 (2=21-40%)	
